How the values were obtained:
Ngn3+ islet progenitors = assay: DsRed+ cell differentiation from purified Ngn3-GFP+ progenitors (Ngn3-GFP/RIP-DsRed mice); format: cell-based, mouse
Description: (§1) Approximately 7,500 E15.5 [at which the number of Ngn3^+ progenitors is peaked] mouse fetuses from both MIPGFP and Ngn3-GPF/RIP-DsRed lines were used for enrichment/purification of Ngn3^+ progenitors. Mouse pancreases were dissected under a stereoscope (Olympus, Tokyo, Japan). Eleven human fetal pancreases were collected from 18-22 week-fetuses (Table 1) and minced. Both mouse and human pancreases were enzymatically dissociated into single cells under aseptic conditions. Rat anti-E-cadherin (E-cad, also known as CD324 or uvomorulin) monoclonal antibody IgG2a (Invitrogen, Carlsbad), Alexa Fluor 647 anti-E-cad (eBioscience), rat anti-integrin α6 subunit (α6, also known as CD49f) mAb IgG2a, phycoerythrin (PE) rat anti-human α6 (Becton Dickson Biosciences, San Jose), PE anti-mouse CD133 (also known as prominin I, eBioscience), biotin rabbit anti-rat immunoglobumins, allophycocyanin (APC) rat anti-mouse CD45 and APC rat anti-mouse TER119 and streptavidin APC-Cy7, streptavidin PE-Texas Red, streptavidin APC (BD Biosciences) or streptavidin Alexa Fluor 750 (Invitrogen), were used. After each incubation with antibodies, cells were washed twice with FACS buffer (0.1% bovine serum albumin in phosphate buffered saline) and finally re-suspended in this buffer containing 1 μg/ml propidium iodide (PI) or 4′,6-diamidino-2-phenylindole (DAPI) for sorting (FACSAria II, Becton Dickson Labware, Bedford). The purity of sorted cells was determined by post-sort analysis. Data presented represented cell samples with over 90% purity.
Sorted β-cell progenitor-enriched cells or Ngn3^+ β-cell progenitors were differentiated in 96-, 12- or 6-well plates (BD Labware). The basal differentiation medium is Dulbecco's Modified Eagle Medium (Invitrogen) with 5.75 or 27.5 mM D-glucose supplemented with 1% B27 (Invitrogen) and 100 μg/ml streptomycin and 100 units/ml penicillin. Growth factor-reduced Matrigel (200 μg/ml, BD Biosciences) was overlayed onto cells in the presence of various potential regulators. […]
The number of β-like cells was directly quantified under a fluorescence microscope. […]

MIN6 cells = assay: Glucose stimulated insulin secretion in highly passaged MIN6 cells; format: cell-based, mouse; details: FIG. 20, 21
Method: The differentiated cells were washed twice with warm PBS. After pre-incubation with Krebs-Ringer buffer at 37° C. for 90 min, the cells were incubated at 37° C. for 60 min with basal D-glucose (2.75 mM) or stimulus D-glucose (27.5 mM). Then each conditioned medium was collected to determine the insulin concentration using an insulin ELISA kit (Mercodia AB, Uppsala, Sweden). MIN6 cells were routinely maintained in a published protocol which contains Dulbecco's modified Eagle's medium (DMEM) containing 25 mM glucose, supplemented with 10% fetal calf serum, 2 mM L-glutamine, 25 mM Hepes, and 285 μM 2-mercaptoethanol. MIN6 cells presented in this study were at passages 30-40 (low passage, LP) or passages 60-70 (high passage, HP). All assays used MIN6 grown to 70-80% confluence unless otherwise stated.

[1] = test system: human islet progenitors (population III); assay: Differentiation of FACS-enriched human fetal islet progenitors, immunofluorescence for insulin and glucagon; format: cell-based; details: 6 days, 10 mM Nic
Description: as §1, with “After each incubation with antibodies, cells were washed twice with FACS buffer (0.1% bovine serum albumin in phosphate buffered saline) and finally re-suspended in this buffer containing 1 μg/ml propidium iodide (PI) or 4′,6-diamidino-2-phenylindole (DAPI) for sorting (FACSAria II, Becton Dickson Labware, Bedford).” left out, “Data presented represented cell samples with over 90% purity.” left out

[2] = test system: Ngn3+ progenitor-containing E-cad+ cells; assay: Insulin-producing (MIPGFP+) cell differentiation from sorted E-cad+ cells of E15.5 MIPGFP mouse pancreas; format: cell-based; details: Nic 10 mM, serum-free and feeder-free culture (FIG. 1c,d)
Method: Approximately 7,500 E15.5 [at which the number of Ngn3^+ progenitors is peaked] mouse fetuses from both MIPGFP and Ngn3-GPF/RIP-DsRed lines were used for enrichment/purification of Ngn3^+ progenitors. Mouse pancreases were dissected under a stereoscope (Olympus, Tokyo, Japan). Eleven human fetal pancreases were collected from 18-22 week-fetuses (Table 1) and minced. Both mouse and human pancreases were enzymatically dissociated into single cells under aseptic conditions. […] After each incubation with antibodies, cells were washed twice with FACS buffer (0.1% bovine serum albumin in phosphate buffered saline) and finally re-suspended in this buffer containing 1 μg/ml propidium iodide (PI) or 4′,6-diamidino-2-phenylindole (DAPI) for sorting (FACSAria II, Becton Dickson Labware, Bedford). The purity of sorted cells was determined by post-sort analysis.
Sorted β-cell progenitor-enriched cells or Ngn3^+ β-cell progenitors were differentiated in 96-, 12- or 6-well plates (BD Labware). […] Growth factor-reduced Matrigel (200 μg/ml, BD Biosciences) was overlayed onto cells in the presence of various potential regulators. Thyrotropin releasing hormone (TRH, 100 nM) was purchased from Auspep (Melbourne, Australia). […] Cultures were incubated in 10% CO2 90% air at 37° C., for up to 8 days.
The number of β-like cells was directly quantified under a fluorescence microscope. To verify the accuracy of cell count, at least five randomly chosen fields per well were microphotographed under the inverse IX71 Olympus fluorescence microscope (Olympus, Tokyo, Japan) and the number of β-like cells determined with the Image Pro Plus software installed in the computer.

[3] = versus calcitriol; cited from earlier work
NeuroD = assay: qRT-PCR of genes in matured insulin-secreting cells; format: cell-based, mouse; details: β-like cells treated with calcitriol
Method: Real time quantitative RT-PCR analysis was carried out using power SYBR Green PCR Master Mix and SYBR® Green Cells-to-Ct™ Kits purchased from Applied Biosystems (Foster City, USA). cDNA was amplified by PCR: 95° C. for 10 min, followed by 40 cycles of 95° C. for 15 sec and 60° C. for 1 min. The number of cycles of threshold (Ct) was measured with an ABI Prism 7900HT Sequence Detection System (Applied Biosystems) or a Rotor-Gene RG-3000 (Corbet Research, Sydney, Australia). All quantifications (ΔCt) were normalized with the internal 18s rRNA level (2^−Δct). Nic-containing differentiation medium was removed from the differentiated β-like cells. A warmed maturation medium was added to the differentiated cells. The maturation medium is Dulbecco's Modified Eagle Medium (Invitrogen) with 5.75 mM D-glucose without nicotinamide (10 mM), 2% B27 (Invitrogen) and 100 μg/ml streptomycin and 100 units/ml penicillin supplemented with calcitriol (10 nM). Cultures were incubated in 10% CO2 90% air at 37° C., for 4 days.

[4] = test system: differentiated β-like cells; assay: Maturation of differentiated β-like cells, glucose stimulated insulin secretion; format: cell-based, mouse; details: calcitriol 10 nM, 4 days; glucose 2.75 / 27.5 mM (FIG. 19)
Method: The differentiated cells were washed twice with warm PBS. After pre-incubation with Krebs-Ringer buffer at 37° C. for 90 min, the cells were incubated at 37° C. for 60 min with basal D-glucose (2.75 mM) or stimulus D-glucose (27.5 mM). Then each conditioned medium was collected to determine the insulin concentration using an insulin ELISA kit (Mercodia AB, Uppsala, Sweden). Nic-containing differentiation medium was removed from the differentiated β-like cells. A warmed maturation medium was added to the differentiated cells. The maturation medium is Dulbecco's Modified Eagle Medium (Invitrogen) with 5.75 mM D-glucose without nicotinamide (10 mM), 2% B27 (Invitrogen) and 100 μg/ml streptomycin and 100 units/ml penicillin supplemented with calcitriol (10 nM). Cultures were incubated in 10% CO2 90% air at 37° C., for 4 days.

## NC(=O)c1cccnc1 [Nic, pyridine-3-carboxylic acid amide]
Ngn3+ islet progenitors; Nic added at 24 hr after plating, counted at day 4
  number of differentiated DsRed+ cells, share of optimal levels: approximately 40%
Ngn3+ islet progenitors; day 4 of culture, 0% at the start
  DsRed+ cells, share of all cells by FACS: 35%
MIN6 cells
  glucose stimulated insulin secretion (GSIS) in dedifferentiated, highly passaged MIN6 cells: regain partial GSIS
[1]
  α and β cells detected immunochemically in cultured population III: numerous single hormone-positive α and β cells
[2]
  number of MIPGFP+ cells, fold more in the presence of Nic: at least 17 fold

## C[C@H](CC#CC(C)(C)O)[C@H]1CC[C@@H]2/C(=C/C=C3C[C@@H](O)C[C@H](O)C3)CCC[C@@]21C [Inecalcitol, 19-nor-14-epi-23-yne calcitriol]
[3]
  hypercalcaemic effect, fold less: 480 fold

## C=C1/C(=C\C=C2/CCC[C@]3(C)[C@@H]([C@H](C)CCCC(C)(C)O)CC[C@@H]23)C[C@@H](O)C[C@@H]1O [Calcitriol, 1, 25 (OH)2 vitamin D3]
Ngn3+ islet progenitors; calcitriol 10 nM with or without Nic 10 mM, day 4 (FIG. 17)
  β-cell differentiation of Ngn3+ islet progenitors (number of DsRed+ cells): does not promote β-cell differentiation
NeuroD
  NeuroD expression: further up-regulated
MIN6 cells
  glucose stimulated insulin secretion (GSIS) in dedifferentiated, highly passaged MIN6 cells: partially restores GSIS
[4]
  maturation of differentiated β-like cells (GSIS): promoted the maturation

— patent US10568913B2, “Method for generating mature β-like cells” (The University of Western Australia, priority 2013, dated 2020)
